Legend:
[1] = tested on: mouse whisker follicle epithelial cells; test: Outgrowth and cell counts of purine-supplemented mouse whisker hair follicle cultures; format: cell-based; conditions: 400 uM purine
Text: Intact mouse whisker hair follicles were dissected from the skin under sterile conditions. The hair shaft was resected at its point of exit from the follicle. The intact follicle was then digested with trypsin, repeatedly washed, and filtered with a nylon mesh to remove external cells that adhere to the follicle capsule. The follicle was then opened with a single longitudinal incision and place in culture medium supplemented with 10% dialyzed fetal bovine serum, epidermal growth factor, and one of three different purine nucleoside metabolites (Hypoxyanthine, xanthosine, or xanthine) each supplemented to 400 uM.
Confluent primary cultures were transferred into to 25-cm^2 flasks. Seven days after this transfer, cell counts were performed before transferring cultures to 75-cm^2 flasks.

[2] = tested on: hair follicle epithelial cell cultures; test: Limiting dilution cloning of hair follicle epithelial cells with and without purine supplementation; format: cell-based, mouse; conditions: for Cell clone efficiency, Cloning Condition Purine-supplemented (positive wells/total wells) / Cell clone efficiency, Cloning Condition Purine-free (positive wells/total wells): limiting dilution in 96 well plates; for Cell clone efficiency, Cloning Condition Purine-supplemented (positive wells/total wells): cloned in the presence of the purine used for initial outgrowth (400 uM); for Cell clone efficiency, Cloning Condition Purine-free (positive wells/total wells): cultures grown out with 400 uM purine, cloned without purine
Text: After outgrowth of the follicle epithelial cells, cultures were trypsinized to harvest cells for secondary culture. […] In this manner, purine metabolite-dependent clonal expansion was verified. […] Seventeen Xn-derived clones were transferred to 24-well plates, and 15 survived expansion to full scale cultures for cryo-preservation.

[3] = tested on: adult stem cell-enriched populations from skeletal muscle, pancreas or small intestinal epithelium of XPRT-transgenic mice; test: Proliferation of adult stem cell-enriched populations explanted from XPRT-transgenic mice in xanthine-supplemented medium; format: cell-based, mouse; conditions: cells explanted from XPRT-transgenic mice
Text: We have generated transgenic mice ubiquitously expressing the xanthine phosphoribosyltransferase (XPRT) gene. We used the gene encoding for XPRT from the protozoan Leismania donovani. The XPRT enzyme can convert Xanthine into xanthosine monophosphate, the critical precursor for cellular guanine nucleotides. This enzyme has no mammalian counterpart and its substrate can enter the cell via ubiquitously expressed nucleobase transporters. Therefore, we can control the kinetics of adult stem cells expressing XPRT by supplementing with or depriving the culture medium of xanthine. In the presence of xanthine, XPRT-expressing cells increase their cellular level of guanine nucleotides independently of their normal endogenous pathway involving the conversion of inosine monophosphate to xanthosine monophosphate by the enzyme inosine monophosphate dehydrogenase.
We have generated transgenic mice ubiquitously expressing the XPRT gene under the control of the chicken β-actin/CMV enhancer. […] We have also shown that the culture of pancreatic cells from one of the transgenic lines gives rise to clusters of small cells with large nuclei. This feature is typical of ductal cells, from which a subset is believed to correspond to the pancreatic adult stem cells. […]

SMILES | Promotion of enhanced growth of mouse whisker follicle epithelial cells (comparison of purines) [1] | Order of reaching confluency of primary cultures ([1]; three hair follicles in one well of a 24-well plate) | Yield of cell clones and dependence on the purine ([2]; limiting dilution cloning, summary of Table 1) | Cell clone efficiency, Cloning Condition Purine-supplemented (positive wells/total wells) [2] | Cell clone efficiency, Cloning Condition Purine-free (positive wells/total wells) [2] | Proliferation in xanthine-supplemented culture medium [3]
O=c1[nH]c(=O)c2[nH]cnc2[nH]1 [Xn, xanthine] | worked the best | reached confluency first | significant number of cell clones with a marked dependence on Xn | 50/480 | 4/96 | enhanced proliferation
O=c1[nH]cnc2nc[nH]c12 [Hx, hypoxanthine] |  |  |  | 6/480 | 0/96 | 
O=c1[nH]c(=O)c2ncn([C@@H]3O[C@H](CO)[C@@H](O)[C@H]3O)c2[nH]1 [Xs, xanthosine] |  |  |  | 1/480 | 0/96 | 

— patent US7655465B2, “Methods for ex vivo propagation of somatic hair follicle stem cells” (Massachusetts Institute of Technology, priority 2004, dated 2010)
